The assay has as its system genetisch hypertonen Ratten. Nature of the assay: Antihypertensive effect in the spontaneously hypertensive rat, systolic blood pressure by tail cuff after oral dosing. The class given is in vivo, Ratte. Particulars: male SHR/N/Ibm/Bm rats, N=6, mean of day 1 and 2; for change in vivo at 25 µmol/kg / change in vivo at 10 µmol/kg: Rattus norvegicus, po; for change in vivo at 25 µmol/kg / BP (% Änderung vs. Kontrolle), Mittelwert für Meßzeitpunkte: Stunden nach Gabe (1. und 2. Tag) 2h / BP (% Änderung vs. Kontrolle), Mittelwert für Meßzeitpunkte: Stunden nach Gabe (1. und 2. Tag) 6h: 25 µmol/kg p.o. once daily on two consecutive days; for change in vivo at 10 µmol/kg: 10 µmol/kg p.o. once daily on two consecutive days. From the text:
Die antihypertensive Wirksamkeit der erfindungsgemäßen Verbindungen kann am Modell der spontan hypertonen Ratte nachgewiesen werden.
Zur Bestimmung der antihypertensiven Wirkung werden die unten aufgeführten Verbindungen in den angegebenen Dosen an zwei aufeinander folgenden Tagen an je 6 männlichen Ratten (Stamm SHR/N/Ibm/Bm, 250-350 g) mit genetisch bedingtem Hochdruck (systolischer Blutdruck > 180 mmHg) täglich einmal mittels Schlundsonde verabfolgt. Die Messung des Blutdrucks erfolgt jeweils 2, 6 und 24 Stunden nach Substanzgabe.
Die Blutdruckmessung wird in einer Wärmekammer bei 36°C vorgenommen, um eine bessere Durchblutung der Schwanzarterie zu erreichen. Hierzu werden die Tiere in perforierte Lochblechkäfige verbracht und 20 - 40 Min. nach Beginn der Aufwärmung gemessen. Zur Messung des systolischen arteriellen Drucks wird eine ringförmige Manschette mit aufblasbarer Gummimembran zur Unterbindung der Durchblutung und ein ringförmiger Piezokristallaufnehmer zur Erfassung der Pulswellen auf den Schwanz aufgeschoben. Nach erfolgter Unterbindung des Blutstroms in der Schwanzarterie wird der Manschettendruck kontinuierlich reduziert. Die Wiederkehr der Pulswellen bei Druckablassen wird automatisch als systolischer Blutdruck erkannt und ausgedruckt (Bühler, R. et al.: Microprocessor-based automation of blood pressure measurement in the conscious rat. Proceedings of the 4th international symposium on rats with spontaneous hypertension and related studies, Rascher, R. et al. (Eds.), Schattauer Verlag, Stuttgart, New York, 1982, S. 410-413). Pulssignale und Druckverlauf werden zur Auswertung graphisch aufgezeichnet.
Zur Gewöhnung an den Meßvorgang werden die Tiere vor Substanzprüfung 14 Tage trainiert. In der zweiten Trainingswoche werden Blutdruck-Vorwerte erhoben. Tiergruppen, die Substanz erhalten, werden gegen eine Kontrollgruppe geprüft. In der anschließenden Tabelle werden die untersuchten Verbindungen durch laufende Nummern gekennzeichnet, die mit den jeweiligen Beispielnummern übereinstimmen. Bei getrennten Diastereomeren ist der Drehwert des untersuchten Diastereomers angegeben.
Tabelle I gibt für die Vertreter der erfindungsgemäßen Verbindungen die prozentuale Senkung des Blutdrucks (BP) nach oraler Verabreichung bei der Ratte wieder.
%-Änderungen (BP) an genetisch hypertonen Ratten nach täglich einmaliger p.o.-Applikation an zwei aufeinanderfolgenden Tagen (N=6/Dosis).

[1] abbreviates: 2 h, 2h after dosing, read-out: BP (% Änderung vs. Kontrolle), Mittelwert für Meßzeitpunkte: Stunden nach Gabe (1. und 2. Tag) 2h.
Setting [2] is: 6 h, 6h after dosing, read-out: BP (% Änderung vs. Kontrolle), Mittelwert für Meßzeitpunkte: Stunden nach Gabe (1. und 2. Tag) 6h.
Where [3] appears, read: 24 h, 24h after dosing, read-out: BP (% Änderung vs. Kontrolle), Mittelwert für Meßzeitpunkte: Stunden nach Gabe (1. und 2. Tag) 24h.

Consider 14 molecules from patent publication EP0336132A1, “1-Phenylpropyl compounds” (Byk Gulden Lomberg Chemische Fabrik GmbH, priority 1988, dated 1989).

Read-outs that look alike come from different tables or passages of the source.

`COC(=O)C1=C(C)NC(C)=C(C(=O)O[C@@H](c2ccccc2)[C@@H](C)N)C1c1cccc([N+](=O)[O-])c1` (single isomer, unassigned) [17 (-104,3°)]: the change in vivo at 25 µmol/kg under setting [1] was -56%, the change in vivo at 25 µmol/kg under setting [2] is -47% and the change in vivo at 25 µmol/kg under setting [3] is -14.5%.

With `COC(=O)C1=C(C)NC(C)=C(C(=O)O[C@H](c2ccccc2)[C@@H](C)N(C)Cc2cc(OC)c(OC)c(OC)c2)C1c1cccc([N+](=O)[O-])c1` (single isomer, unassigned) [Beispiel 15], the change in vivo at 25 µmol/kg was -62.5% under setting [1], -56% under setting [2] and -37% under setting [3].

As to `CN[C@H](C)[C@H](OC(=O)C1=C(C)NC(C)=C(C(=O)OC)C1c1cccc([N+](=O)[O-])c1)c1ccccc1` (single isomer, unassigned) [10 (+165,5°)], the change in vivo at 25 µmol/kg was -52% under setting [1] and -39.5% under setting [2].

With `CN[C@@H](C)[C@@H](OC(=O)C1=C(C)NC(C)=C(C(=O)OC)C1c1cccc([N+](=O)[O-])c1)c1ccccc1` (single isomer, unassigned) [9 (-66,3°)], the change in vivo at 25 µmol/kg is -55% under setting [1] and -49.5% under setting [2].

As to `CCN(C)[C@@H](C)[C@H](OC(=O)C1=C(C)NC(C)=C(C(=O)OC)C1c1cccc([N+](=O)[O-])c1)c1ccccc1` (single isomer, unassigned) [Beispiel 12], the change in vivo at 25 µmol/kg by setting is: under setting [1], -48.5%; under setting [2], -38%.

With `COC(=O)C1=C(C)NC(C)=C(C(=O)O[C@H](c2ccccc2)[C@H](C)N(C)Cc2ccccc2)C1c1cccc([N+](=O)[O-])c1` (single isomer, unassigned) [Beispiel 11], the change in vivo at 25 µmol/kg runs as follows: under setting [1], -53.5%; under setting [2], -48%.

For `CCOC(=O)C1=C(C)NC(C)=C(C(=O)O[C@H](c2ccccc2)[C@H](C)N(C)C)C1c1cccc([N+](=O)[O-])c1` (single isomer, unassigned) [Beispiel 1b], the “BP (% Änderung vs. Kontrolle), Mittelwert für Meßzeitpunkte: Stunden nach Gabe (1. und 2. Tag) 2h” value (2h after dosing) is given as -40,0%. The “BP (% Änderung vs. Kontrolle), Mittelwert für Meßzeitpunkte: Stunden nach Gabe (1. und 2. Tag) 6h” value (6h after dosing) is given as -30,3%.

Regarding `COC(=O)C1=C(C)NC(C)=C(C(=O)O[C@H](c2ccccc2)[C@H](C)N(C)CC=Cc2ccccc2)C1c1cccc([N+](=O)[O-])c1` (single isomer, unassigned) [Beispiel 14], the change in vivo at 25 µmol/kg runs as follows: under setting [1], -51.5%; under setting [2], -41.5%.

As for `CN[C@H](C)[C@@H](OC(=O)C1=C(C)NC(C)=C(C(=O)OC)C1c1cccc([N+](=O)[O-])c1)c1ccccc1` (single isomer, unassigned) [7 (-88°)], the change in vivo at 25 µmol/kg under setting [1] was -56%, the change in vivo at 25 µmol/kg under setting [2] is -46% and the change in vivo at 25 µmol/kg under setting [3] was -11.5%.

As for `CCOC(=O)C1=C(C)NC(C)=C(C(=O)O[C@H](c2ccccc2)[C@H](C)N(C)C)C1c1cccc([N+](=O)[O-])c1` (single isomer, unassigned) [Beispiel 1a], the “BP (% Änderung vs. Kontrolle), Mittelwert für Meßzeitpunkte: Stunden nach Gabe (1. und 2. Tag) 2h” value (2h after dosing) is listed as -47,5%. Also, the “BP (% Änderung vs. Kontrolle), Mittelwert für Meßzeitpunkte: Stunden nach Gabe (1. und 2. Tag) 6h” value (6h after dosing) is -44,5%.

Turning to `COC(=O)C1=C(C)NC(C)=C(C(=O)O[C@H](c2ccccc2)[C@H](C)N)C1c1cccc([N+](=O)[O-])c1` (single isomer, unassigned) [16 (+216,4°)], the change in vivo at 25 µmol/kg is, setting by setting: under setting [1], -59%; under setting [2], -56.5%; under setting [3], -21.5%.

For `COC(=O)C1=C(C)NC(C)=C(C(=O)O[C@H](c2ccccc2)[C@H](C)N(C)Cc2cc([N+](=O)[O-])ccc2OC)C1c1cccc([N+](=O)[O-])c1` (single isomer, unassigned) [Beispiel 19], the change in vivo at 10 µmol/kg runs as follows: under setting [1], -42%; under setting [2], -23.5%; under setting [3], -10.5%.

`CN[C@@H](C)[C@H](OC(=O)C1=C(C)NC(C)=C(C(=O)OC)C1c1cccc([N+](=O)[O-])c1)c1ccccc1` (single isomer, unassigned) [8 (+202,6°)]: the change in vivo at 25 µmol/kg is -55% under setting [1], -43% under setting [2] and -10.5% under setting [3].

On to `CCOC(=O)C1=C(C)NC(C)=C(C(=O)O[C@@H](c2ccccc2)[C@@H](C)N(C)C)C1c1cccc([N+](=O)[O-])c1` (single isomer, unassigned) [Beispiel 2b], for which the change in vivo at 25 µmol/kg by setting is: under setting [1], -40%; under setting [2], -34.3%.
